Where two headings read alike, the source gives them in different places. Numbered stars: 1 amine (or outer) side, 2 acyl side, 3 side chain; on linkers, the order of the positions; unused ones are H or OH. Square brackets hold non-standard residues; d marks the D form. Side chains are listed from the residue outwards. Peptide text beside a SMILES is read from it. * marks the point of attachment. C20 diacid = O=C(O)CCCCCCCCCCCCCCCCCCC(=O)*; C18 diacid = O=C(O)CCCCCCCCCCCCCCCCC(=O)*; αMePhe(2-F) = C[C@](N)(Cc1ccccc1F)C(=O)O; γGlu = O=C(O)[C@H](CCC(=O)[*:2])N[*:1]; αMeL = CC(C)C[C@](C)(N)C(=O)O; Orn = NCCC[C@H](N)C(=O)O; AEEA = NCCOCCOCC(=O)O; Aib = CC(C)(N)C(=O)O
Key:
[1] = single subcutaneous 200 nMol/kg, male CD-1 mice
Procedure: The pharmacokinetics of select Examples are evaluated following a single subcutaneous administration of 200 nMol/kg to male CD-1 mice. […] Plasma (K3 EDTA) concentrations are determined using a qualified LC/MS method that measures the intact mass of the Examples. […] Instruments are combined for LC/MS detection.

[2] = single subcutaneous 50 nMol/kg, male cynomolgus monkeys
Procedure: (§1) Pharmacokinetics in male Cynomolgus Monkeys The pharmacokinetics of select Examples are evaluated following a single subcutaneous administration of 50 nMol/kg to male cynomolgus monkeys. […] Peptide plasma (K3 EDTA) concentrations are determined using a qualified LC/MS method that measured the intact mass of the compound. […] Instruments are combined for LC/MS detection.

[3] = single intrajejunal 1 μmol/kg with 250 mM C10 and 12 mg/mL SBTI, male Sprague Dawley rats; for Cmax/D: mean (SD)
Procedure: The pharmacokinetics of select Examples are evaluated following a single subcutaneous (SC) administration of 50 nMol/kg (dissolved in PBS, pH 7.4) or single 1 μmol/kg (mixed with 250 mM sodium decanoate (“C10”) and 12 mg/mL soybean trypsin inhibitor (SBTI)) intrajejunal (IJ) administration to male Sprague Dawley rats. […] Pharmacokinetic parameters are calculated using individual plasma concentrations. A qualified LC/MS method that measures the intact mass of the Example is used to determine plasma (K3 EDTA) concentrations. Each Example is tested with an analog peptide as an internal standard. Immunoaffinity based precipitation with anti-GIP/GLP1 antibodies is used to extract each test peptide and analog.

in vivo = details: male, cynomolgus monkey, plasma, sc, 50 nmol/kg
Procedure: as §1

[4] = Peptide stability in 50% v/v pig small intestinal fluid with and without protease inhibitor; assay type: in vitro ADME; details: for remaining at 0.25 h / remaining at 0.5 h / remaining at 1 h: read-out: % peptide intact
Procedure: A peptide is incubated at 37° C. in 1% (v/v) rat small intestinal fluid or 50% (v/v) pig small intestinal fluid with and without a peptidase inhibitor. At different time points, samples are taken out, followed by quenching with 1% TFA in 50% ACN/water to stop the enzyme activity. The intact peptide at different time points is analyzed by high-performance liquid chromatography (HPLC) equipped with an ultraviolet (UV) detector or LC-MS/MS and normalized to the amount of peptide before mixing with the enzyme solution.

[5] = Proteolytic stability assay in 90% pig small intestinal fluid (pSIF); assay type: in vitro ADME; details: 90% pSIF, 37° C.
Procedure: Peptides are diluted to a concentration of 0.4 mg/mL in 90% pig small intestinal fluid. After the mixing, 20 μL are immediately removed (time 0 for the time point of pre-incubation). The mixture is then incubated at 37° C. at 150 rpm. […] The sample is centrifuged at 20,000×g for 20 min at 4° C.
The data analysis is performed using MassLynx.

[6] = pH 8, with rSBTI (5 mg/mL), protease inhibitor, rSBTI (5 mg/mL), 15 min
[7] = pH 8, with rSBTI (5 mg/mL), protease inhibitor, rSBTI (5 mg/mL), 30 min
[8] = pH 8, with rSBTI (5 mg/mL), protease inhibitor, rSBTI (5 mg/mL), 60 min

Row | Structure (SMILES) | AUCINF_D_obs [1] [hr*kg*nmol/L/nmol] | Cmax/D [1] [kg*nmol/L/nmol] | AUCINF_D_obs [2] [hr*kg*nmol/L/nmol] | Cmax/D [2] [kg*nmol/L/nmol] | AUCINF_D_obs [3] [hr*kg*nmol/L/nmol] | Cmax/D [3] | CL/F (in vivo) [mL/day/kg] | Tmax (in vivo) [h] | half-life (in vivo) [h] | % peptide intact ([4]; no PI, control, 0 min) [%] | remaining at 0.25 h ([4]; pH 8, no PI, control, 15 min) [%] | remaining at 0.5 h ([4]; pH 8, no PI, control, 30 min) [%] | remaining at 1 h ([4]; pH 8, no PI, control, 60 min) [%] | remaining at 0.25 h [4, 6] [%] | remaining at 0.5 h [4, 7] [%] | remaining at 1 h [4, 8] [%] | % peptide intact ([4]; rSBTI (5 mg/mL), 0 min) [%] | also measured
1 | CC[C@H](C)[C@H](NC(=O)[C@H](CC(C)C)NC(=O)[C@H](Cc1ccc(O)cc1)NC(=O)[C@@H](CCC(=O)O)NC(=O)[C@@H](NC(=O)[C@H](Cc1ccccc1)NC(=O)[C@H](CCC(=O)O)NC(=O)C(C)(C)NC(=O)[C@H](CCC(N)=O)NC(=O)[C@H](C)NC(=O)[C@H](CCCCNC(=O)COCCOCCNC(=O)COCCOCCNC(=O)CC[C@H](NC(=O)CCCCCCCCCCCCCCCCCCC(=O)O)C(=O)O)NC(=O)[C@H](CCC(=O)O)NC(=O)[C@H](CC(=O)O)NC(=O)[C@H](CC(C)C)NC(=O)[C@](C)(CC(C)C)NC(=O)[C@@H](NC(=O)[C@H](CO)NC(=O)[C@H](Cc1ccc(O)cc1)NC(=O)[C@H](CC(=O)O)NC(=O)[C@H](CO)NC(=O)[C@@H](NC(=O)[C@](C)(Cc1ccccc1F)NC(=O)[C@@H](NC(=O)CNC(=O)[C@H](CCC(=O)O)NC(=O)C(C)(C)NC(=O)[C@@H](N)Cc1ccc(O)cc1)[C@@H](C)O)[C@@H](C)O)[C@@H](C)CC)[C@@H](C)CC)C(=O)N[C@@H](CCC(=O)O)C(=O)NCC(=O)NCC(=O)N1CCC[C@H]1C(=O)N[C@@H](CO)C(=O)N[C@@H](CO)C(=O)NCC(=O)N[C@@H](C)C(=O)N1CCC[C@H]1C(=O)N1CCC[C@H]1C(=O)N1CCC[C@H]1C(=O)N[C@@H](CO)C(N)=O [Example 1] (H-Y[Aib]EGT[αMePhe(2-F)]TSDYSI[αMeL]LDEK([AEEA-AEEA-γGlu-C20 diacid])AQ[Aib]EFI[dE]YLIEGGPSSGAPPPS-NH2) | 135.61 | 4.84 | 1458 | 6.5 | 1.31 | 0.08 (0.05) kg*nmol/L/nmol | 16.6 | 18 | 125 |  |  |  |  |  |  |  |  | 
2 | CC[C@H](C)[C@H](NC(=O)[C@H](CC(C)C)NC(=O)[C@H](Cc1ccc(O)cc1)NC(=O)[C@@H](CCC(=O)O)NC(=O)[C@@H](NC(=O)[C@H](Cc1ccccc1)NC(=O)[C@H](CCC(=O)O)NC(=O)C(C)(C)NC(=O)[C@H](CCC(N)=O)NC(=O)[C@H](C)NC(=O)[C@H](CCCCNC(=O)COCCOCCNC(=O)COCCOCCNC(=O)CC[C@H](NC(=O)CCCCCCCCCCCCCCCCC(=O)O)C(=O)O)NC(=O)[C@H](CCCN)NC(=O)[C@H](CC(=O)O)NC(=O)[C@H](CC(C)C)NC(=O)[C@](C)(CC(C)C)NC(=O)[C@@H](NC(=O)[C@H](CO)NC(=O)[C@H](Cc1ccc(O)cc1)NC(=O)[C@H](CC(=O)O)NC(=O)[C@H](CO)NC(=O)[C@@H](NC(=O)[C@](C)(Cc1ccccc1F)NC(=O)[C@@H](NC(=O)CNC(=O)[C@H](CCC(=O)O)NC(=O)C(C)(C)NC(=O)[C@@H](N)Cc1ccc(O)cc1)[C@@H](C)O)[C@@H](C)O)[C@@H](C)CC)[C@@H](C)CC)C(=O)N[C@@H](CCC(=O)O)C(=O)NCC(=O)NCC(=O)N1CCC[C@H]1C(=O)N[C@@H](CO)C(=O)N[C@@H](CO)C(=O)NCC(=O)N[C@@H](C)C(=O)N1CCC[C@H]1C(=O)N1CCC[C@H]1C(=O)N1CCC[C@H]1C(=O)N[C@@H](CO)C(N)=O [Example 2] (H-Y[Aib]EGT[αMePhe(2-F)]TSDYSI[αMeL]LD[Orn]K([AEEA-AEEA-γGlu-C18 diacid])AQ[Aib]EFI[dE]YLIEGGPSSGAPPPS-NH2; N-terminus assumed) | 77.23 | 5.4 | 2059 | 11.7 | 6.6 | 0.56 (0.40) kg*nmol/L/nmol | 11.8 | 24 | 102 | 100.00 | 2.42 | 1.9 | 3.09 | 103 | 113 | 87.3 | 100.00 | % peptide intact ([4]; rSBTCI (0.5 mg/mL), 0 min): 100.00%; % peptide intact ([4]; rSBTCI (0.5 mg/mL), 15 min): 131.71%; % peptide intact ([4]; rSBTCI (0.5 mg/mL), 30 min): 126.53%; % peptide intact ([4]; rSBTCI (0.5 mg/mL), 60 min): 123.70%
3 | CC[C@H](C)[C@H](NC(=O)[C@H](CC(C)C)NC(=O)[C@H](Cc1ccc(O)cc1)NC(=O)[C@@H](CCC(=O)O)NC(=O)[C@@H](NC(=O)[C@H](Cc1ccccc1)NC(=O)[C@H](CCC(=O)O)NC(=O)C(C)(C)NC(=O)[C@H](CCC(N)=O)NC(=O)[C@H](C)NC(=O)[C@H](CCCCNC(=O)COCCOCCNC(=O)COCCOCCNC(=O)CC[C@H](NC(=O)CCCCCCCCCCCCCCCCCCC(=O)O)C(=O)O)NC(=O)[C@H](CCCN)NC(=O)[C@H](CC(=O)O)NC(=O)[C@H](CC(C)C)NC(=O)[C@](C)(CC(C)C)NC(=O)[C@@H](NC(=O)[C@H](CO)NC(=O)[C@H](Cc1ccc(O)cc1)NC(=O)[C@H](CC(=O)O)NC(=O)[C@H](CO)NC(=O)[C@@H](NC(=O)[C@](C)(Cc1ccccc1F)NC(=O)[C@@H](NC(=O)CNC(=O)[C@H](CCC(=O)O)NC(=O)C(C)(C)NC(=O)[C@@H](N)Cc1ccc(O)cc1)[C@@H](C)O)[C@@H](C)O)[C@@H](C)CC)[C@@H](C)CC)C(=O)N[C@@H](CCC(=O)O)C(=O)NCC(=O)NCC(=O)N1CCC[C@H]1C(=O)N[C@@H](CO)C(=O)N[C@@H](CO)C(=O)NCC(=O)N[C@@H](C)C(=O)N1CCC[C@H]1C(=O)N1CCC[C@H]1C(=O)N1CCC[C@H]1C(=O)N[C@@H](CO)C(N)=O [Example 3] | 158.49 | 4.42 | 3420 | 11.38 | 8.45 | 0.47 (0.16) kg*nmol/L/nmol | 6.96 | 30 | 181 |  |  |  |  |  |  |  |  | 
4 | CC[C@H](C)[C@H](NC(=O)[C@H](CC(C)C)NC(=O)[C@](C)(Cc1ccc(O)cc1)NC(=O)[C@@H](CCC(=O)O)NC(=O)[C@@H](NC(=O)[C@H](Cc1ccccc1)NC(=O)[C@H](CCC(=O)O)NC(=O)C(C)(C)NC(=O)[C@H](CCC(N)=O)NC(=O)[C@H](C)NC(=O)[C@H](CCCCNC(=O)COCCOCCNC(=O)COCCOCCNC(=O)CC[C@H](NC(=O)CCCCCCCCCCCCCCCCC(=O)O)C(=O)O)NC(=O)[C@H](CCCN)NC(=O)[C@H](CC(=O)O)NC(=O)[C@H](CC(C)C)NC(=O)[C@](C)(CC(C)C)NC(=O)[C@@H](NC(=O)[C@H](CO)NC(=O)[C@H](Cc1ccncc1)NC(=O)[C@H](CC(=O)O)NC(=O)[C@H](CO)NC(=O)[C@@H](NC(=O)[C@](C)(Cc1ccccc1F)NC(=O)[C@@H](NC(=O)CNC(=O)[C@H](CCC(=O)O)NC(=O)C(C)(C)NC(=O)[C@@H](N)Cc1ccc(O)cc1)[C@@H](C)O)[C@@H](C)O)[C@@H](C)CC)[C@@H](C)CC)C(=O)N[C@@H](CCC(=O)O)C(=O)NCC(=O)NCC(=O)N1CCC[C@H]1C(=O)N[C@@H](CO)C(=O)N[C@@H](CO)C(=O)NCC(=O)N[C@@H](C)C(=O)N1CCC[C@H]1C(=O)N1CCC[C@H]1C(=O)N1CCC[C@H]1C(=O)N[C@@H](CO)C(N)=O [Example 4] |  |  |  |  |  |  |  |  |  | 100.00 | 72.5 | 41.4 | 19 | 97 | 96.3 | 88.6 | 100.00 | percentage of peptide not cleaved using pSIF ([5]; 0 min): 100%; remaining at 0.5 h, 0.4 mg/mL ([5]; pig, 90% pig small intestinal fluid (pSIF), 30 min, read-out: percentage of peptide not cleaved using pSIF): 73.4%; remaining at 0.75 h, 0.4 mg/mL ([5]; pig, 90% pig small intestinal fluid (pSIF), 45 min, read-out: percentage of peptide not cleaved using pSIF): 56.4%; remaining at 1 h, 0.4 mg/mL ([5]; pig, 90% pig small intestinal fluid (pSIF), 60 min, read-out: percentage of peptide not cleaved using pSIF): 60%

— US12252524B2, “GIP/GLP1 co-agonist compounds” (Eli Lilly and Company, priority 2018, dated 2025)
